What was measured:
[1] = molecular target: T1, 5-hydroxytryptamine receptor 1B (Homo sapiens, UniProt P28222); assay: Binding affinity towards cloned human 5-hydroxytryptamine 1B receptor
[2] = molecular target: 5-hydroxytryptamine receptor 1D (Homo sapiens, UniProt P28221); assay: Binding affinity towards cloned human 5-hydroxytryptamine 1D receptor
[3] = molecular target: T1, 5-hydroxytryptamine receptor 1B; assay: Selectivity ratio against cloned human 5-HT1B receptor to that of h5-HT1D receptor

T1 sequence (P28222 whole entry): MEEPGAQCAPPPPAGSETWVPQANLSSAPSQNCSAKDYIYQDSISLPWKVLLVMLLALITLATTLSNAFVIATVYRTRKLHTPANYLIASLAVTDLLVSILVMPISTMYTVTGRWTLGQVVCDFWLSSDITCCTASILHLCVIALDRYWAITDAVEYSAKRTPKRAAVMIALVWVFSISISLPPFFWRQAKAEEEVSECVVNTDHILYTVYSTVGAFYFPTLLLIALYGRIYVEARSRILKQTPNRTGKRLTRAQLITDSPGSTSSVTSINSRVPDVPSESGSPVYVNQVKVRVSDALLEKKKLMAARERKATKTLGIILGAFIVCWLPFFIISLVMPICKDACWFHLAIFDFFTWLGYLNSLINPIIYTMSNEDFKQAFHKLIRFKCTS
Sequence of 5-hydroxytryptamine receptor 1D (P28221 whole entry): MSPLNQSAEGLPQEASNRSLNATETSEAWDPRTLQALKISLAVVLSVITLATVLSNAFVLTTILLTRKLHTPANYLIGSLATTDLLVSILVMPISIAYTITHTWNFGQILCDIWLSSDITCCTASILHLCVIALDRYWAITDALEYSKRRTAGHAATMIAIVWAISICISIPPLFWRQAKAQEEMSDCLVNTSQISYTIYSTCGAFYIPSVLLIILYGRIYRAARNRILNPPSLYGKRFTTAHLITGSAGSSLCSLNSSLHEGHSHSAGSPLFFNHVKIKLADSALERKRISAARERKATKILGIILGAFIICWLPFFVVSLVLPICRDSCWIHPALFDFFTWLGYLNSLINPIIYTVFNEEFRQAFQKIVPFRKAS

SMILES	Ki [1]	Ki [2]	Selectivity [3]
CN1CCC[C@@H]1Cc1c[nH]c2ccc(C3=CCN(C(=S)NC4CCCCC4)CC3)cc12	13 nM	2 nM	–
CN1CCC[C@@H]1Cc1c[nH]c2ccc(C3=CCN(/C(S)=N/C45C[C@H]6C[C@@H](C4)C[C@@H](C5)C6)CC3)cc12	39 nM	5.6 nM	7
Cc1ccc(NC(=O)N2CC=C(c3ccc4[nH]cc(C[C@H]5CCCN5C)c4c3)CC2)cc1	3 nM	0.31 nM	9.7
CN1CCC[C@@H]1Cc1c[nH]c2ccc(C3=CCN(C(=O)Nc4ccc(Cl)cc4)CC3)cc12	3.8 nM	0.38 nM	10
COc1ccc(NC(=S)N2CC=C(c3ccc4[nH]cc(C[C@H]5CCCN5C)c4c3)CC2)cc1	2.4 nM	0.46 nM	5.2
CN1CCC[C@@H]1Cc1c[nH]c2ccc(C3=CCN(S(=O)(=O)c4cccc5ccccc45)CC3)cc12	23 nM	0.88 nM	26
CN1CCC[C@@H]1Cc1c[nH]c2ccc(C3=CCN(C(=O)Nc4cccc5ccccc45)CC3)cc12	3.8 nM	0.45 nM	8.4
CN1CCC[C@@H]1Cc1c[nH]c2ccc(C3=CCN(/C(S)=N/c4ccc(Cl)cc4)CC3)cc12	1.5 nM	0.56 nM	2.7
CN1CCC[C@@H]1Cc1c[nH]c2ccc(C3=CCN(C(=O)NC4CCCCC4)CC3)cc12	14 nM	3 nM	4.6
COc1ccc(NC(=O)N2CC=C(c3ccc4[nH]cc(C[C@H]5CCCN5C)c4c3)CC2)cc1	4.2 nM	0.42 nM	10
Cc1ccc(/N=C(\S)N2CC=C(c3ccc4[nH]cc(C[C@H]5CCCN5C)c4c3)CC2)cc1	–	–	3.9
CN1CCC[C@@H]1Cc1c[nH]c2ccc(C3=CCN(/C(S)=N/C4CCCCC4)CC3)cc12	–	–	6.3
CN1CCC[C@@H]1Cc1c[nH]c2ccc(C3=CCN(/C(S)=N/c4ccccc4)CC3)cc12	–	–	8.5
CN1CCC[C@@H]1Cc1c[nH]c2ccc(C3=CCN(C(=O)Nc4ccccc4)CC3)cc12	4.8 nM	0.45 nM	11
CN1CCC[C@@H]1Cc1c[nH]c2ccc(C3=CCN(C(=O)NC45C[C@H]6C[C@@H](C4)C[C@@H](C5)C6)CC3)cc12	11 nM	4 nM	2.8
COc1ccc(S(=O)(=O)N2CC=C(c3ccc4[nH]cc(C[C@H]5CCCN5C)c4c3)CC2)cc1	14 nM	0.76 nM	19
Cc1ccc(S(=O)(=O)N2CC=C(c3ccc4[nH]cc(C[C@H]5CCCN5C)c4c3)CC2)cc1	17 nM	0.8 nM	21
CN1CCC[C@@H]1Cc1c[nH]c2ccc(C3=CCN(C(=S)Nc4ccccc4)CC3)cc12	5.8 nM	0.68 nM	–
Cc1ccc(NC(=S)N2CC=C(c3ccc4[nH]cc(C[C@H]5CCCN5C)c4c3)CC2)cc1	1.5 nM	0.38 nM	–
CN1CCC[C@@H]1Cc1c[nH]c2ccc(C3=CCN(/C(S)=N/c4cccc5ccccc45)CC3)cc12	3.2 nM	0.7 nM	4.6
CN(C)CCc1c[nH]c2ccc(C3=CCN(C)CC3)cc12	610 nM	8 nM	–
